Assay results as given in US20050090522A1 (priority 2001, published 2005).
Read-outs that look alike come from different tables or passages of the source.

Key:
[1] = Metabolic stability in pooled human liver microsomes (HLM); conditions: pooled human liver microsomes, 3 μM drug; Low/Intermediate/High
In short: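 Pooled human liver microsomes (0.9 mg/ml final) in 0.1 M potassium phosphate pH 7.4 with 0.033 mM MgCl2 and an NADPH-regenerating system. Compound pre-incubated 2 min, reaction started with cofactors, run 10 min at 37° C, quenched in acetonitrile and analysed by LC/MS.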

[2] = Rat IV and PO pharmacokinetic studies; conditions: male, Sprague-Dawley, in vivo; for clearance: iv, 1 mg/kg, CL, iv dosing at 1 mg/kg; for AUC(0-t): po, 5 mg/kg, AUC 24 h, oral dosing at 5 mg/kg
Protocol: Rat Pharmacokinetic Studies: For the IV and PO pharmacokinetic studies of compounds in rats, the compound was dissolved in PEG-400/ethanol (90/10) as a solution. Rat. Male Sprague-Dawley rats (300-350 g, Hilltop Lab Animals, Inc., Scottdale, Pa.) with cannulas implanted in the jugular vein were used. The rats were fasted overnight in the PO pharmacokinetic studies. Blood samples of 0.3 ml were collected from the jugular vein in EDTA-containing microtainer tubes (Becton Dickinson, Franklin Lakes, N. J.), and centrifuged to separate plasma. In the IV study, the test compound was delivered at 1 mg/kg as a bolus over 0.5 min (n=3). […] Quantitation of Compounds in Plasma. […] The resulting supernates were separated from the precipitated proteins by centrifugation for 10 minutes and transferred to autosampler vials. Samples were either prepared manually, or with the use of the Tomtec automated liquid handler. An aliquot of 5 μL was injected for analysis. The HPLC system consisted of two Shimadzu LC10AD pumps (Columbia, Md.), a Shimadzu SIL-HTC autosampler (Columbia, Md.), and a Hewlett Packard Series 1100 column compartment (Palo Alto, Calif.). The column was a YMC Pro C18 (2.0×50 mm, 3 μm particles, Waters Co., Milford, Mass.), maintained at 60° C. and a flow rate of 0.3 ml/min. The mobile phase consisted of 10 mM ammonium formate and 0.1% formic acid in water (A) and 100% 10 mM ammonium formate and 0.1% formic acid in methanol (B). […] The mobile phase was then returned to initial conditions and the column re-equilibrated for 1 minute. Total analysis time was 4 minutes. The HPLC was interfaced to a Micromass Quattro LC. Ultra high purity nitrogen was used as the nebulizing and desolvation gas at flow rates of 100 L/hr for nebulization and 1100 L/hr for desolvation. The desolvation temperature was 300° C. and the source temperature was 150° C. Data acquisition utilized selected reaction monitoring (SRM). Ions representing the (M+H)^+ species for the compound and the internal standard were selected in MS 1 and collisionally dissociated with argon at a pressure of 2×10^−3 torr to form specific product ions which were subsequently monitored by MS2.
For accuracy, the determined measure of viral inhibition is an EC50; but the minimum plasma concentrations which should be maintained in a patient is generally believed to be at least four or five fold higher. […] Lower is better. • 4) Estimating potential exposure in man by measuring parameters such as AUC and rate of clearance by oral and iv dosing in rats. High exposure and low clearance was desired.
The rat model is an initial model used to assess potential for exposure in man.

HeLa cells = assay: Cytotoxicity assay in HeLa cells (MTT dye reduction, CC50); conditions: cytotoxicity; Yes = CC50 above 100 uM, No = not
In short: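 HeLa cells expressing CD4 and CCR5, grown in DMEM with 10% FBS, were used for cytotoxicity testing by MTT dye reduction; the text gives no further cytotoxicity conditions. The parallel antiviral assay exposed the same cells to compound at final <10 μM for 72 h.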

HIV-1 = HIV-1 single-round infectious luciferase reporter virus (pseudotype) assay in HeLa CD4 CCR5 cells; format: cell-based
In short: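 HeLa CD4 CCR5 cells (5×10^4/well, DMEM + 10% FBS) were treated with compound (final <10 μM) and infected with single-round luciferase reporter virus made in 293 cells, at MOI ~0.01. Luciferase was read 72 h post infection. EC50 came from 10-concentration percent-inhibition curves fitted to a four-parameter logistic model.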

[3] = Human immunodeficiency virus 1, HeLa-CD4/CCR5, read-out: EC50 Group from TABLE 1, HeLa CD4 CCR5 cells, single-round infectious luciferase reporter virus
[4] = Human immunodeficiency virus 1, HeLa-CD4/CCR5, read-out: EC50 category, HIV-1 single-round reporter virus assay, category 1/2/3 per Table A1 key
[5] = Human immunodeficiency virus 1, HeLa-CD4/CCR5, read-out: EC50 Group from Table 1, Table 2-1, HeLa CD4 CCR5 cells, single-round luciferase reporter virus
[6] = Human immunodeficiency virus 1, HeLa-CD4/CCR5, read-out: EC50 Group from Table 1, Table 4, HeLa CD4 CCR5 cells, single-round luciferase reporter virus
[7] = Human immunodeficiency virus 1, HeLa-CD4/CCR5, 72 h, read-out: EC50 Group from Table 1, HeLa CD4 CCR5 cells, luciferase reporter virus, harvested 72 h after infection

| SMILES | HLM predicted human clearance class [1] | clearance [2] [mL/min/kg] | AUC(0-t) [2] [µg·h/mL] | CC50 > 100 uM (HeLa cells) | EC50 (HIV-1; [3]) [µM] | EC50 (HIV-1; [4]) [µM] | EC50 (HIV-1; [5]) [µM] | EC50 (HIV-1; [6]) [µM] | EC50 (HIV-1; [7]) [µM] |
| --- | --- | --- | --- | --- | --- | --- | --- | --- | --- |
| COc1cnc(-n2cncn2)c2[nH]cc(C(=O)C(=O)N3CCN(C(=O)c4ccccc4)CC3)c12 [Example 187, 1-benzoyl-4-[(4-methoxy-7-(1,2,4-triazol-1-yl)-6-azaindol-3-yl)-oxoacetyl]piperazine] | Low (0-0.100) | 2.4 ± 0.5 | 22.4 ± 7.2 | Yes | < 1 | < 0.0002 |  |  |  |
| COc1cnc(-c2cnc(N)cn2)c2[nH]cc(C(=O)C(=O)N3CCN(C(=O)c4ccccc4)[C@H](C)C3)c12 [Example 266] | Low (0-0.100) | 37.4 ± 3.2 | 0.16 ± 0.04 | Yes |  | < 0.0002 | < 1 |  |  |
| Nc1ccn(-c2ncc(F)c3c(C(=O)C(=O)N4CCN(C(=O)c5ccccc5)CC4)c[nH]c23)n1 [Example 309] | Low (0-0.100) | 34.3 ± 2.6 | 0.09 ± 0.05 | Yes | < 1 | < 0.0002 |  |  |  |
| O=C(C(=O)N1CCN(C(=O)c2ccccc2)CC1)c1c[nH]c2c(-c3ncco3)ccnc12 [Example 204] | Low (0-0.100) | 10 ± 1.3 | 12 ± 1.4 | Yes |  | 0.0002 to 1 |  | < 1 |  |
| C[C@@H]1CN(C(=O)C(=O)c2c[nH]c3c(-c4ncco4)ccnc23)CCN1C(=O)c1ccccc1 [Example 353] | Low (0-0.100) | 5.6 ± 1.1 | 1360 ± 307 | Yes |  | 0.0002 to 1 |  |  | < 1 |
| Cc1ccn(-c2ncc(F)c3c(C(=O)C(=O)N4CCN(C(=O)c5ccccc5)CC4)c[nH]c23)n1 [Example 310] | Low (0-0.100) | 16.5 ± 3.3 | 2.1 ± 0.4 | Yes | < 1 | < 0.0002 |  |  |  |
| COc1cnc(-n2cncn2)c2[nH]cc(C(=O)C(=O)N3CCN(C(=O)c4ccccc4)[C@H](C)C3)c12 [Example 245, (R)-1-benzoyl-2-methyl-4-[(4-methoxy-7-(1,2,4-triazol-1-yl)-6-azaindol-3-yl)-oxoacetyl]piperazine] | Low (0-0.100) | 5.6 ± 1.8 | 12.1 ± 1.3 | Yes |  | < 0.0002 | < 1 |  |  |
| CCc1ncn(-c2ncc(OC)c3c(C(=O)C(=O)N4CCN(C(=O)c5ccccc5)[C@H](C)C4)c[nH]c23)n1 [Example 322] | Low (0-0.100) | 1.8 ± 0.4 | 82 ± 23 | Yes |  | < 0.0002 | < 1 |  |  |
| COc1cnc(-n2cnc(C)n2)c2[nH]cc(C(=O)C(=O)N3CCN(C(=O)c4ccccc4)[C@H](C)C3)c12 [Example 317] | Low (0-0.100) | 1.9 ± 0.26 | 43 ± 12 | Yes |  | < 0.0002 | < 1 |  |  |
| COc1cnc(-n2ccc(C)n2)c2[nH]cc(C(=O)C(=O)N3CCN(C(=O)c4ccccc4)CC3)c12 [Example 190, 1-benzoyl-4-[(4-methoxy-7-(3-methyl-pyrazol-1-yl)-6-azaindol-3-yl)-oxoacetyl]piperazine] | Low (0-0.100) | 3.7 ± 1 | 7.4 ± 3.4 | Yes | < 1 | < 0.0002 |  |  |  |
| COc1cnc(-c2ncon2)c2[nH]cc(C(=O)C(=O)N3CCN(C(=O)c4ccccc4)CC3)c12 [Example 226] | Low (0-0.100) | 24.5 ± 3 | 0.5 ± 0.13 | Yes | < 1 | < 0.0002 |  |  |  |
| O=C(C(=O)N1CCN(C(=O)c2ccccc2)CC1)c1c[nH]c2c(-n3nccn3)ccnc12 [Example 205, 1-(4-benzoyl-piperazin-1-yl)-2-(7-[1,2,3]triazol-2-yl-1H-pyrrolo[3,2-b]pyridin-3-yl)-ethane-1,2-dione] | Low (0-0.100) | 5.4 ± 0.4 | 9.6 ± 1.2 | Yes |  | 0.0002 to 1 |  | < 1 |  |
| COc1cnc(-n2ccnn2)c2[nH]cc(C(=O)C(=O)N3CCN(C(=O)c4ccccc4)CC3)c12 [Example 188, 1-benzoyl-4-[(4-methoxy-7-(1,2,3-triazol-1-yl)-6-azaindol-3-yl)-oxoacetyl]piperazine] | Low (0-0.100) | 2.4 ± 0.08 | 20 ± 4.6 | Yes | < 1 | < 0.0002 |  |  |  |
| COc1cnc(-n2cc(C)nn2)c2[nH]cc(C(=O)C(=O)N3CCN(C(=O)c4ccccc4)[C@H](C)C3)c12 [Example 326] | Low (0-0.100) | 8.3 | 9.8 ± 2.9 | Yes |  | < 0.0002 | < 1 |  |  |
| COc1cnc(-n2ccc(CO)n2)c2[nH]cc(C(=O)C(=O)N3CCN(C(=O)c4ccccc4)[C@H](C)C3)c12 [Example 236, (R)-1-benzoyl-2-methyl-4-[(4-methoxy-7-(3-hydroxylmethyl-pyrazol-1-yl)-6-azaindol-3-yl)-oxoacetyl]piperazine] | Low (0-0.100) | 29 ± 6.7 | 0.56 ± 0.25 | Yes |  | < 0.0002 | < 1 |  |  |
| C[C@@H]1CN(C(=O)C(=O)c2c[nH]c3c(-c4nccs4)ccnc23)CCN1C(=O)c1ccccc1 [Example 354] | Low (0-0.100) | 11.2 ± 0.8 | 1.26 | Yes |  | 0.0002 to 1 |  |  | < 1 |
| C[C@@H]1CN(C(=O)C(=O)c2c[nH]c3c(-n4nccn4)ccnc23)CCN1C(=O)c1ccccc1 [Example 355] | Low (0-0.100) | 13.9 ± 5.3 | 3.3 ± 0.77 | Yes |  | 0.0002 to 1 |  |  | < 1 |
| COc1cnc(-n2ccnc2)c2[nH]cc(C(=O)C(=O)N3CCN(C(=O)c4ccccc4)CC3)c12 [Example 193, 1-benzoyl-4-[(4-methoxy-7-(1-imidazolyl)-6-azaindol-3-yl)-oxoacetyl]piperazine] | Low (0-0.100) | 4.5 ± 0.4 | 14 ± 8 | No | < 1 | < 0.0002 |  |  |  |
